Here are results for three compounds from patent US20230165788A1, “MULTI-DRUG FORMULATIONS FOR SUBCUTANEOUS BIODEGRADABLE RESERVOIR DEVICE” (Research Triangle Institute, priority 2020, published 2023).

The conditions of data set [1]: beagle dogs, cited from earlier work.
For data set [2] the following is noted: non-polymeric refillable implant, rhesus macaques; cited from earlier work.
Data set [3] is described as follows: Evaluation of Elvitegravir for use in the device: solubility and dose. Format: physicochemical. The source says:
(§1) The active agent formulation includes more than one active agent and an excipient. One or more of the more than one active agent can be one or a combination of a therapeutic, a preventative, a prophylactic and/or a contraceptive. […] Not all active agents are amenable for use in the described device. Active agents having sufficient aqueous solubility and stability and dosing requirements and that are amenable to size parameters of the device are suitable for use in the described device. Moreover, in embodiments, the active agents retain a high level of purity that is both safe and efficacious to the user throughout the intended dosage duration and are not susceptible to immediate degradation caused by environmental contents (e.g., body fluids, physiological temperature). In additional embodiments, the solubility of active agents within potential excipients can range from 0.1-50 mg/mL.

In another data set the test system is HIV. As to the kind of experiment: Evaluation of Elvitegravir for use in the device: potency.
Source text: as §1

For `CC(C)OC(=O)[C@H](C)N[P@](=O)(CO[C@H](C)Cn1cnc2c(N)ncnc21)Oc1ccccc1` [TAF, tenofovir alafenamide], the “duration of drug delivery” value in data set [1] (subdermal silicone implant with PVA-coated channels) is 40 days. Moreover, the adverse events result in data set [1] (subdermal silicone implant) is given as “without observed adverse events”. In data set [2], the “period of sustained levels of tenofovir diphosphate (TFV-DP) in PBMCs” value is listed as 83 days.
With `COc1cc2c(cc1Cc1cccc(Cl)c1F)c(=O)c(C(=O)O)cn2[C@H](CO)C(C)C` [Elvitegravir], the solubility entry in data set [3] was “relatively low solubility”. Moreover, the potency entry in the data set with HIV is “suboptimal potency”.
Regarding `Nc1nc(=O)n([C@@H]2CS[C@H](CO)O2)cc1F` [FTC, emtricitabine], the “period of sustained levels of FTC-triphosphate (FTC-TP)” value in data set [2] is listed as 28 days.
